Like-named read-outs stand apart in the source and are kept apart here.
Columns and labels:
apoA-I[L178P] [1] = target: T1, apoA-I[L178P] (Homo sapiens, UniProt P02647, L202P); experiment: ITC (also Tm shift by CD thermal denaturation, EC50 […]; TSA; ANS); type: binding
T1 construct: gene APOA1; recombinant lipid-free apoA-I (243 residues) expressed in E. coli, thioredoxin/His tag removed with 3C protease

apoA-I[L178P] [2] = target: T1, apoA-I[L178P]; experiment: as above; type: binding; remark: listed apart in the source

T1 sequence (P02647 25-267 L202P): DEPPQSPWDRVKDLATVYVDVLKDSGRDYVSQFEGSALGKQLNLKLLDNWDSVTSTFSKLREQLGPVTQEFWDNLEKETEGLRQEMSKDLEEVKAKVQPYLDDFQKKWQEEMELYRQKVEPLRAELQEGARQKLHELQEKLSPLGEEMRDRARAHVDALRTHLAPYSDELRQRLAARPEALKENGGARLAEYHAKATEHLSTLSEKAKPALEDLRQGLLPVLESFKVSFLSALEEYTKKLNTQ

EC50 (apoA-I[L178P] [2]) [µM] | Structure (SMILES) | EC50 (apoA-I[L178P] [1]) [µM]
 | C=C(c1ccc(C(=O)O)cc1)c1cc2c(cc1C)C(C)(C)CCC2(C)C [C9-p1, bexarotene] | 98
400 | CC(C)c1c(C(=O)Nc2ccccc2)c(-c2ccccc2)c(-c2ccc(F)cc2)n1CC[C@@H](O)C[C@@H](O)CC(=O)O [C8, atorvastatin] | 

From PMC11106541, “Library screening identifies commercial drugs as potential structure correctors of abnormal apolipoprotein A-I” (Journal of Lipid Research, 2024)
